Results reported in PMC12389580, “Neuromuscular System of Nematodes Is a Target of Synergistic Pharmacological Effects of Carvacrol and Geraniol” (Pharmaceuticals, 2025).

Legend:
Assay in all cases: two-electrode voltage clamp, Xenopus oocytes
Assay type in all cases: cell-based
[1] = biological target: T1, Asu-ACR-16 nAChR (Ascaris suum, UniProt A0A0K0QSL7); details: non-competitive antagonist of ACh-evoked currents, -60 mV
T1 construct: homopentameric nAChR; full-length subunit cRNA injected in Xenopus laevis oocytes; no auxiliary subunit mentioned
T1 sequence (A0A0K0QSL7 1-504): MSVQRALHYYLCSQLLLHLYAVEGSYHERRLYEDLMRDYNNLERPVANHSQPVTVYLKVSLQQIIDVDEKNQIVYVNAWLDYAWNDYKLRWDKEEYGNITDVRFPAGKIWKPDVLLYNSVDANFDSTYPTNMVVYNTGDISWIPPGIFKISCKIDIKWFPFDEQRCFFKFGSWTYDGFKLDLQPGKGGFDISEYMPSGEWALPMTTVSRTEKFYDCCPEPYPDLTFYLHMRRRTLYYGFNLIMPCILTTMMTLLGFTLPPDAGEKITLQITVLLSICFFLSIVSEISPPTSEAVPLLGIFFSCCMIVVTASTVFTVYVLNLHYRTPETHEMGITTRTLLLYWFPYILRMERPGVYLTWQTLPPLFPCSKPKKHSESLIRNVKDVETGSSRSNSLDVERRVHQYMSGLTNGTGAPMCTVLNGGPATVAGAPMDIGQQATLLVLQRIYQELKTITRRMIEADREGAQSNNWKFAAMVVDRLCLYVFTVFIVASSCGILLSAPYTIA

[2] = biological target: T1, Asu-ACR-16 nAChR
[3] = biological target: T1, Asu-ACR-16 nAChR; details: non-competitive inhibition of ACh-evoked currents, -60 mV

Compound: Cc1ccc(C(C)C)cc1O [carvacrol]
- Emax of ACh at 100 μM carvacrol (% of response to 100 μM ACh) [1]: 73.09 ± 1.87%

Compound: CC(=O)OCC[N+](C)(C)C [acetylcholine]
- EC50 [2]: 7.89 ± 1.02 µM

Compound: CC(C)=CCC/C(C)=C/CO [geraniol]
- Emax of ACh at 100 μM geraniol (% of response to 100 μM ACh; control 97.63 ± 0.92%) [3]: 39.83 ± 1.49%
